# Results: publication PMC6006850, “Assessment of new HDAC inhibitors for immunotherapy of malignant pleural mesothelioma” (Clinical Epigenetics, 2018)
# Read-outs that look alike come from different tables or passages of the source.
# Columns and labels:
# [1] = test system: natural killer cells (NK) (CD56+, CD16+); test: Flow cytometry of natural killer cell proportion in treated lymphocytes; assay type: cell-based, human
# Experimental: (§1) For flow cytometry experiments, lymphocytes were seeded at 4 × 10^5cells/well in a flat-bottomed 96-well plate in 180 μl RPMI 1640 8% HS. […]
# (§2) The day of analysis, cells were stained in a conical-bottomed 96-well plate at 10^5 cells/well. The plate was centrifuged at 800×g for 1 min, and the pellets were washed using 200 μl/well of PBS containing BSA 0.1% (wash buffer). Antibodies (see Additional file 2: Table S2) were used at a dilution of 1/30 in the wash buffer, and then, the plate was incubated at 4 °C for 30 min. Later, two washings were performed using the wash buffer prior to flow cytometry analysis. All flow cytometry data were acquired with FACScalibur (BD biosciences) using the CellQuest software (BD Biosciences) and analyzed by FlowJo software.
# (§3) The aim of our strategy is to induce an anti-tumor immune response to cure malignant pleural mesothelioma by using combinations of epigenetic drugs including HDACi. Therefore, it was necessary to study the effect of these HDACi on sub-populations of lymphocytes implicated in this immune response. […] Toxicity of the compounds was tested on natural killer cells (NK) (CD56+, CD16+), on regulatory T-cells (Treg) (CD4+, CD25+, CD127 low and Foxp3+), on CD4 and CD8 naïve T-cells (CD4+, CCR7+ and CD45RA+, and CD8+, CCR7+ and CD45RA+, respectively), and on CD4 and CD8 memory T cells (CD4+ and CD45RO+, and CD8+ and CD45RO+, respectively).
# PD-L1 (B7-H1) mRNA = test: PD-L1 mRNA expression in MPM cells by real time PCR; conditions: for PD-L1 mRNA: HDACi 48 h combined with decitabine 500 nM (72 h pretreatment); for PD-L1 expression: two additional MPM cell lines (Meso34 and Meso45), molecule alone
# Experimental: (§4) All real-time PCR reactions were performed using the Mx3005P QPCR Systems (Stratagen Products, Agilent Technologies), and the amplifications were done using the SYBR Green PCR Master Mix SAB bioscience (Qiagen) mixed with Oligonucleotides QuantiTect Primer (Qiagen). The thermal cycling conditions were composed of 1 cycle at 95 °C for 10 min, 40 cycles at 95 °C for 30 s and 60 °C for 1 min, and 1 cycle at 95 °C for 1 min, 60 °C for 30 s, and 95 °C for 30 s. The experiments were carried out in duplicate for each data point. All the qPCR data were analyzed by MxPro software.
# [2] = cited from earlier work
# CD8 T-cell clones = test: Cell viability (CellTiter-Glo) of CD8 T-cell clones treated with HDACi, with or without decitabine; assay type: cell-based, human; parameters: AUC (Area Under the Curve) T-CD8 clones - 5-aza: unit not given beside the values; conditions: for IC50: Homo sapiens, T-cell; for AUC (Area Under the Curve) T-CD8 clones + 5-aza 500nM / AUC (Area Under the Curve) T-CD8 clones - 5-aza: viability dose-response curve; for AUC (Area Under the Curve) T-CD8 clones + 5-aza 500nM: decitabine 500 nM pretreatment; for AUC (Area Under the Curve) T-CD8 clones - 5-aza: no decitabine
# lymphocytes = test: Cell viability (CellTiter-Glo) of lymphocytes treated with HDACi, with or without decitabine; parameters: hematological toxicity: dose or concentration left out as unconfirmed; AUC (Area Under the Curve) Lymphocytes - 5-aza: unit not given beside the values; conditions: for AUC (Area Under the Curve) Lymphocytes + 5-aza 500nM / AUC (Area Under the Curve) Lymphocytes - 5-aza: viability dose-response curve; for AUC (Area Under the Curve) Lymphocytes + 5-aza 500nM: decitabine 500 nM pretreatment; for AUC (Area Under the Curve) Lymphocytes - 5-aza: no decitabine
# RIG-1 mRNA = RIG-1 mRNA expression in MPM cells by real time PCR; conditions: decitabine alone
# Experimental: as §4
# [3] = test system: regulatory T-cells (Treg) (CD4+, CD25+, CD127 low and Foxp3+); test: Flow cytometry of regulatory T cell proportion in treated lymphocytes; assay type: cell-based, human; conditions: decitabine alone 500 nM, 72 h
# Experimental: as §1, §2, §3
# MDA5 mRNA = MDA5 mRNA expression in MPM cells by real time PCR; conditions: decitabine alone
# Experimental: as §4
smiles,measurement,setting,value
"CCCC(CCC)C(=O)O [VPA, valproic acid]",decrease of the proportion of NK cells,"[1]; in comparison to untreated lymphocytes, 48 h, VPA 5 mM, SAHA 1 μM, ODB 32 μM, NODB 8 μM, ODH 4 μM, NODH 50 nM",more than 50%
same,PD-L1 mRNA,PD-L1 (B7-H1) mRNA; Meso96,significant increase
same,PD-L1 expression,PD-L1 (B7-H1) mRNA,increased
same,blood concentrations observed during treatments,"[2]; patients, clinical trials",approximately 1 mM
same,IC50,"CD8 T-cell clones; read-out: IC50 T-CD8 clones + Decitabine 500 nM, decitabine 500 nM 72 h pretreatment, then 48 h HDACi",20 µM
same,IC50,"CD8 T-cell clones; 48 h HDACi, no decitabine pretreatment, read-out: IC50 T-CD8 clones − Decitabine",3800 ± 60 µM
same,AUC (Area Under the Curve) T-CD8 clones + 5-aza 500nM,CD8 T-cell clones,60.52
same,AUC (Area Under the Curve) T-CD8 clones - 5-aza,CD8 T-cell clones,216.8
same,hematological toxicity,lymphocytes; (blood concentration observed during treatments),weak hematological toxicity
same,AUC (Area Under the Curve) Lymphocytes + 5-aza 500nM,lymphocytes,208.5
same,AUC (Area Under the Curve) Lymphocytes - 5-aza,lymphocytes,248.3
"Nc1ncn([C@H]2C[C@H](O)[C@@H](CO)O2)c(=O)n1 [decitabine, 5-Aza-2′-deoxycytidine]",effect on NK proportion,"[1]; decitabine alone 500 nM, 72 h",reduced moderately
same,RIG-1 mRNA expression,RIG-1 mRNA; Meso34,increased significantly
same,RIG-1 mRNA expression,RIG-1 mRNA; Meso45,increased significantly
same,RIG-1 mRNA expression,RIG-1 mRNA; Meso96,not
same,effect on Treg proportion,[3],reduced moderately
same,mRNA expression of PD-L1,"PD-L1 (B7-H1) mRNA; Meso96, decitabine alone 500 nM",did not affect
same,PD-L1 expression,PD-L1 (B7-H1) mRNA,increased
same,MDA5 mRNA expression,MDA5 mRNA; Meso34,increased significantly
same,MDA5 mRNA expression,MDA5 mRNA; Meso45,increased significantly
same,MDA5 mRNA expression,MDA5 mRNA; Meso96,not
"O=C(CCCCCCC(=O)Nc1ccccc1)NO [SAHA, Suberoylanilide hydroxamic acid]",PD-L1 mRNA,PD-L1 (B7-H1) mRNA; Meso96,significant increase
same,PD-L1 expression,PD-L1 (B7-H1) mRNA,increased
same,clinical doses measured in blood from patients,[2],1 to 4 µM
same,blood concentrations reach in clinic,"[2]; patients, clinical trials",approximately 1 μM
same,AUC (Area Under the Curve) T-CD8 clones + 5-aza 500nM,CD8 T-cell clones,35.07
same,AUC (Area Under the Curve) T-CD8 clones - 5-aza,CD8 T-cell clones,112.2
same,toxicity for lymphocytes and CD8 T-cells,lymphocytes; at clinical doses measured in blood from patients (approximately 1 to 4 μM),toxic
same,cells survived,"lymphocytes; lymphocytes, highest dose of compound, in the presence or not of decitabine",approximately 40%
same,AUC (Area Under the Curve) Lymphocytes + 5-aza 500nM,lymphocytes,183.9
same,AUC (Area Under the Curve) Lymphocytes - 5-aza,lymphocytes,200.5
